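All cell lines were grown in 96-well plates and treated with compound for 48 hours. GI50: concentration for 50% inhibition of growth.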 Calls of active or inactive are those of the source. No stated cut-off is given here; in the data, active = GI50 up to about 1.1 µM and inactive = higher.
Key:
Experiment in all cases: NCI anticancer screen, dose series, 48 h
[1] = system: SNB-75
[2] = system: OVCAR-4
[3] = system: SK-OV-3
[4] = system: HOP-62
[5] = system: SN12C
[6] = system: UO-31
[7] = system: SK-MEL-5
[8] = system: OVCAR-3
[9] = system: TK-10
[10] = system: NCI-H23
[11] = system: UACC-62
[12] = system: KM-20L2
[13] = system: SNB-19
[14] = system: DMS-114
[15] = system: HCT-116
[16] = system: CCRF-CEM
[17] = system: SK-MEL-2
[18] = system: XF498
[19] = system: HT-29
[20] = system: SW-620
[21] = system: DLD-1
[22] = system: SK-MEL-28
[23] = system: IGROV-1
[24] = system: A549
[25] = system: HCT-15
[26] = system: UACC-257
[27] = system: COLO 205
[28] = system: SF-295
[29] = system: M14
[30] = system: OVCAR-8
[31] = system: DMS-273
[32] = system: OVCAR-5
[33] = system: Malme-3M
[34] = system: 786-0
[35] = system: SF-539
[36] = system: RPMI-8226
[37] = system: K562
[38] = system: ACHN
[39] = system: U-251
[40] = system: NCI-H460
[41] = system: HOP-92
[42] = system: EKVX
[43] = system: M19-MEL
[44] = system: HL-60
[45] = system: MOLT-4
[46] = system: HOP-18
[47] = system: RXF 631
[48] = system: SNB-78
[49] = system: LOX IMVI
[50] = system: CAKI-1
[51] = system: RXF 393
[52] = system: LXFL 529
[53] = system: NCI-H522
[54] = system: NCI-H226
[55] = system: SF-268
[56] = system: A498

O=C(NC(=O)c1cn(CCN(CCO)C(=O)NCCCCCCNC(=O)N(CCO)CCn2cc(C(=O)NC(=O)OCc3ccccc3)c(=O)[nH]c2=O)c(=O)[nH]c1=O)OCc1ccccc1
GI50 [1]: > 100 µM (inactive)
GI50 [2]: > 100 µM (inactive)
GI50 [3]: > 100 µM (inactive)
GI50 [4]: > 100 µM (inactive)
GI50 [5]: > 100 µM (inactive)
GI50 [6]: > 100 µM (inactive)
GI50 [7]: > 100 µM (inactive)
GI50 [8]: > 100 µM (inactive)
GI50 [9]: > 100 µM (inactive)
GI50 [10]: > 100 µM (inactive)
GI50 [11]: > 100 µM (inactive)
GI50 [12]: > 100 µM (inactive)
GI50 [13]: > 100 µM (inactive)
GI50 [14]: > 100 µM (inactive)
GI50 [15]: > 100 µM (inactive)
GI50 [16]: > 100 µM (inactive)
GI50 [17]: > 100 µM (inactive)
GI50 [18]: > 100 µM (inactive)
GI50 [19]: > 100 µM (inactive)
GI50 [20]: > 100 µM (inactive)
GI50 [21]: > 100 µM (inactive)
GI50 [22]: > 100 µM (inactive)
GI50 [23]: > 100 µM (inactive)
GI50 [24]: > 100 µM (inactive)
GI50 [25]: > 100 µM
GI50 [26]: > 100 µM (inactive)
GI50 [27]: > 100 µM (inactive)
GI50 [28]: > 100 µM (inactive)
GI50 [29]: > 100 µM (inactive)
GI50 [30]: > 100 µM (inactive)
GI50 [31]: > 100 µM (inactive)
GI50 [32]: > 100 µM (inactive)
GI50 [33]: > 100 µM (inactive)
GI50 [34]: > 100 µM (inactive)
GI50 [35]: > 100 µM (inactive)
GI50 [36]: > 100 µM (inactive)
GI50 [37]: > 100 µM (inactive)
GI50 [38]: > 100 µM (inactive)
GI50 [39]: > 100 µM (inactive)
GI50 [40]: > 100 µM (inactive)
GI50 [41]: > 100 µM (inactive)
GI50 [42]: > 100 µM (inactive)
GI50 [43]: > 100 µM (inactive)
GI50 [44]: > 100 µM (inactive)
GI50 [45]: > 100 µM (inactive)
GI50 [46]: > 100 µM (inactive)
GI50 [47]: > 100 µM (inactive)
GI50 [48]: > 100 µM (inactive)
GI50 [49]: > 100 µM (inactive)
GI50 [50]: > 100 µM (inactive)
GI50 [51]: > 100 µM (inactive)

COc1ccc(C2SCc3nc4ccccc4n32)cc1 (stereo not drawn)
GI50 [1]: 1.82 µM (inactive)
GI50 [3]: 3.5 µM (inactive)
GI50 [5]: 4.41 µM (inactive)
GI50 [6]: 10 µM (inactive)
GI50 [52]: 5.48 µM (inactive)
GI50 [7]: 3.84 µM (inactive)
GI50 [8]: 6.28 µM (inactive)
GI50 [9]: 23.2 µM (inactive)
GI50 [10]: 4.04 µM (inactive)
GI50 [11]: 3.58 µM (inactive)
GI50 [12]: 2.4 µM (inactive)
GI50 [13]: 6.07 µM (inactive)
GI50 [14]: 2.26 µM (inactive)
GI50 [53]: 0.986 µM (active)
GI50 [16]: 3.49 µM (inactive)
GI50 [17]: 3.9 µM (inactive)
GI50 [18]: 0.124 µM (active)
GI50 [19]: 2.4 µM (inactive)
GI50 [54]: 8.99 µM (inactive)
GI50 [20]: 3.44 µM (inactive)
GI50 [22]: 4.32 µM (inactive)
GI50 [55]: 5.43 µM (inactive)
GI50 [56]: 5.13 µM (inactive)
GI50 [23]: 4.66 µM (inactive)
GI50 [25]: 3.16 µM
GI50 [27]: 2.73 µM (inactive)
GI50 [28]: 2.94 µM (inactive)
GI50 [29]: 4.95 µM (inactive)
GI50 [30]: 6.07 µM (inactive)
GI50 [31]: 3.43 µM (inactive)
GI50 [33]: 7.55 µM (inactive)
GI50 [35]: 5.66 µM (inactive)
GI50 [36]: 2.96 µM (inactive)
GI50 [37]: 2.34 µM (inactive)
GI50 [38]: 5.04 µM (inactive)
GI50 [39]: 3.33 µM (inactive)
GI50 [40]: 3.86 µM (inactive)
GI50 [41]: 1.85 µM (inactive)
GI50 [42]: 19.5 µM (inactive)
GI50 [43]: 3.95 µM (inactive)
GI50 [44]: 1.91 µM (inactive)
GI50 [45]: 3.37 µM (inactive)
GI50 [46]: > 100 µM (inactive)
GI50 [47]: 7.26 µM (inactive)
GI50 [48]: 8.95 µM (inactive)
GI50 [49]: 5.78 µM (inactive)
GI50 [50]: 2.21 µM (inactive)
